The record followed here is ChEMBL document CHEMBL5724796, “Tm Shift (DSF) assay results for EUbOPEN Chemogenomics Library” (2024).

“And” between values parts separate entries of the source, which are not always exact repeats. Equal values may be shown once. Residues, ends and D or L forms follow the SMILES beside them. *: point of attachment. CH2Cl = ClC*

The target in assay [1] is Fibroblast growth factor receptor 2 (Homo sapiens) (UniProt P21802). The conditions noted are these: Compound concentration 20.0 uM.
Chain of Fibroblast growth factor receptor 2 (Homo sapiens) (P21802 22-821 limits assumed): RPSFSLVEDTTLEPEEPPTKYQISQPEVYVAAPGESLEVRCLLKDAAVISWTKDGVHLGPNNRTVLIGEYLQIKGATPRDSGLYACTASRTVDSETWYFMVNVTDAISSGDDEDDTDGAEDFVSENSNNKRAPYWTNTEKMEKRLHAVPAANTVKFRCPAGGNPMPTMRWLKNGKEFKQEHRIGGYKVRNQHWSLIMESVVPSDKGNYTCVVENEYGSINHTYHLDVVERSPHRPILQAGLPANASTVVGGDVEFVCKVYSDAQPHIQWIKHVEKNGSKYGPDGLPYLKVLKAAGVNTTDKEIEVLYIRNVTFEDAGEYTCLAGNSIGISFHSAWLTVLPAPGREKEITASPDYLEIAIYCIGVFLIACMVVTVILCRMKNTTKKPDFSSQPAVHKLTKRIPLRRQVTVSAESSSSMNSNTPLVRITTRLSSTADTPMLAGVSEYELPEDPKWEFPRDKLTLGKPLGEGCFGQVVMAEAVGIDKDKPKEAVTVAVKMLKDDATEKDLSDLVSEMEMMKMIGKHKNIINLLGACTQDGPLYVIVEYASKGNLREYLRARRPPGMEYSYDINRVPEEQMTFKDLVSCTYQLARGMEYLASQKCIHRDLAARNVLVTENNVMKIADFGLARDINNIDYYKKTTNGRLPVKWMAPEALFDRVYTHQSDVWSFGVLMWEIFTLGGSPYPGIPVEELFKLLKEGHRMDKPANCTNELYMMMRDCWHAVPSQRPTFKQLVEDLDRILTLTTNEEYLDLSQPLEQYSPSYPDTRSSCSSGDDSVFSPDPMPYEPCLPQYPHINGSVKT
Description: Thermal Shift Assay. Domain: start/stop: T457-E768
Another assay addresses T1, Peregrin (Homo sapiens) (UniProt P55201).
T1 sequence (whole entry): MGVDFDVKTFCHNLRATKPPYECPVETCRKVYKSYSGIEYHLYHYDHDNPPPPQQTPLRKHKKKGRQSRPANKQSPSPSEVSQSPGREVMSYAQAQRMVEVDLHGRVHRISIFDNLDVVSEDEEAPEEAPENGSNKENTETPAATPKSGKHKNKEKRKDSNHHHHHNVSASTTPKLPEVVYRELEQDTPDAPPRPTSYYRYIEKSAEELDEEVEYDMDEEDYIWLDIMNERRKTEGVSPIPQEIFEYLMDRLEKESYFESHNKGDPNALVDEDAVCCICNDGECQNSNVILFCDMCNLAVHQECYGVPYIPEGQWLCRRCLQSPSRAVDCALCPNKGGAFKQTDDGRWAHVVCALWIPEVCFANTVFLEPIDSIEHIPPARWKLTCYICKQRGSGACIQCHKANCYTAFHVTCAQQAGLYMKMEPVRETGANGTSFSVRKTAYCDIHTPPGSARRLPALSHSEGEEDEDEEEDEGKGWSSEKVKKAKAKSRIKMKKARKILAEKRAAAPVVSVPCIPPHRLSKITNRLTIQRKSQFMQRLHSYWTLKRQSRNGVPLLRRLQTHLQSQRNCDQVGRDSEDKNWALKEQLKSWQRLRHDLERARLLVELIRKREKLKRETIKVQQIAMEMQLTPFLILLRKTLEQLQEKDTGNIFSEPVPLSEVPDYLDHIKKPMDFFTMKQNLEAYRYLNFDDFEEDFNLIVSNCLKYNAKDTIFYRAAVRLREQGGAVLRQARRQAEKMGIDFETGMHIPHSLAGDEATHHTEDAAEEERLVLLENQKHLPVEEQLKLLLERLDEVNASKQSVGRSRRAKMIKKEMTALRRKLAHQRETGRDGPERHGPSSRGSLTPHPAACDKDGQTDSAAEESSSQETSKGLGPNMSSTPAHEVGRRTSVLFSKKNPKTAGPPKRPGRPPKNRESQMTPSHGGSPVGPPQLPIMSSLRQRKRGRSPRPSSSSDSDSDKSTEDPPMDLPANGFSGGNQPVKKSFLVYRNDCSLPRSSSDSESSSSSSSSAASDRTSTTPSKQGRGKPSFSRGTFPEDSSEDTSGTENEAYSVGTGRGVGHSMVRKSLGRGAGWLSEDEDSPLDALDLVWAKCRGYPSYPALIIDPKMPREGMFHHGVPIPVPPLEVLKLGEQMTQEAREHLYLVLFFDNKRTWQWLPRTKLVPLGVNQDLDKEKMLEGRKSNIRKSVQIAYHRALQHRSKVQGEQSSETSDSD
The conditions noted are these: Compound concentration 20.0 uM.

Turning to `Nc1ccc(-c2cccs2)cc1NC(=O)c1ccc2nc(N3CCNCC3)ccc2c1`, the ΔTm amounted to 0.98 °C in assay [1] and 0.96 °C on Peregrin (Homo sapiens).

In the case of `Cn1nc2c(=O)n(CC3(O)CCN(C(=O)C[C@H](c4ccccc4)C(F)(F)F)CC3)cnc2c1-c1ccc(CN)cc1`, the ΔTm in assay [1] is -0.7 °C; at Peregrin (Homo sapiens), 1.89 °C.

Turning to `CC#CCn1c(N2CCC[C@@H](N)C2)nc2c1c(=O)n(Cc1nc(C)c3ccccc3n1)c(=O)n2C`, the ΔTm in assay [1] was 0.28 °C; on Peregrin (Homo sapiens) it was 0.04 °C.

On to `CCOC(=O)Oc1c(OC)cc(C(=O)O[C@H]2C[C@H]3CN4CCc5c([nH]c6cc(OC)ccc56)[C@@H]4C[C@H]3[C@@H](C(=O)OC)[C@@H]2OC)cc1OC`, for which the ΔTm was -1.05 °C in assay [1] and 2.92 °C at Peregrin (Homo sapiens).

With `O=c1c2nnc(C3CCOCC3)n2cc(Br)n1CC1CCCC1`, the ΔTm in assay [1] is -0.26 °C; on Peregrin (Homo sapiens), -0.41 °C.

Take `Cc1ccc([N+](=O)[O-])cc1S(=O)(=O)N(C)C`: the thermal shift (ΔTm) is -0.67 °C in assay [1] and 2.57 °C at Peregrin (Homo sapiens).

For `CN(C)Cc1ccc(-c2nc3cccc4c3n2CCNC4=O)cc1`, the results for the ΔTm (in assay [1]; on Peregrin (Homo sapiens)) were 0.73 °C and 0.88 °C, respectively.

`CC(=O)N[C@@H](Cc1ccccc1)C(=O)N[C@@H](CC(C)C)C(=O)N[C@H](C(=O)N[C@@H](CC(=O)O)C(=O)CCl)[C@@H](C)O` (Ac-FLTD-CH2Cl): the values for the ΔTm (in assay [1]; on Peregrin (Homo sapiens)) were 0.77 °C and -1.18 °C, respectively.

As for `Cc1cc(N2C[C@@H](C)N[C@@H](C)C2)ncc1-c1ccc(-c2nc3c(ccn3C)c(=O)[nH]2)cc1`, the ΔTm in assay [1] was determined as 0.8 °C; on Peregrin (Homo sapiens) it was 2.61 °C.

On to `O=C(N1CCCCC1c1ccccc1)n1cc(-c2ccc(-c3cccc(CO)c3)cc2)nn1` (stereo unspecified), for which the results for the ΔTm (in assay [1]; on Peregrin (Homo sapiens)) were -4.93 °C and -1.91 °C, respectively.

With `O=C(Nc1c(Cl)cncc1Cl)c1ccc(OC(F)F)c(OCC2CC2)c1`, the ΔTm in assay [1] was found to be 0.95 °C; on Peregrin (Homo sapiens), 0.52 °C.

For `O=C(NCCCCc1ccccc1)n1c(=O)oc2cc(-c3ccc(F)cc3)ccc21`, the ΔTm in assay [1] was -0.32 °C; on Peregrin (Homo sapiens) it was 2.4 °C.

`Cc1ncsc1-c1ccc([C@H](C)NC(=O)[C@@H]2C[C@@H](O)CN2C(=O)[C@@H](NC(=O)CNC(=O)c2ccc(F)c(-c3ccc(N4C[C@@H](C)N(C)[C@@H](C)C4)c(NC(=O)c4c[nH]c(=O)cc4C(F)(F)F)c3)c2)C(C)(C)C)cc1`: the values for the ΔTm (in assay [1]; at Peregrin (Homo sapiens)) were -4.38 °C and -0.15 °C, respectively.

In the case of `Cc1ccc(F)c2cc(C(=O)N[C@@H]3CCC[C@H](N4CC[C@H](N(C)S(C)(=O)=O)C4)C3)[nH]c12`, the ΔTm in assay [1] is -0.4 °C; on Peregrin (Homo sapiens), -0.28 °C.

Take `CCN(c1cc(C#CCN2CCOCC2)cc(C(=O)NCc2c(C)cc(C)[nH]c2=O)c1C)[C@H]1CC[C@H](N(C)CCOC)CC1`: the ΔTm in assay [1] is 0.42 °C; on Peregrin (Homo sapiens), -1.63 °C.

`Nc1cccc(CNC(=O)c2ccc(Oc3ccc(OCc4cccc(F)c4)cc3)nc2)c1`: the results for the ΔTm (in assay [1]; at Peregrin (Homo sapiens)) were -0.6 °C and 2.81 °C, respectively.

As to `NC(=O)c1ccc(Oc2ccc(C(N)=O)cc2)cc1`, the ΔTm in assay [1] was 0.24 °C; on Peregrin (Homo sapiens), -2.11 °C.

For the compound `COc1ncc(C)c(-c2ccc3c(c2)[nH]c(=O)c2cnn([C@H]4CCOC4)c23)c1C`, the figures for the ΔTm (in assay [1]; at Peregrin (Homo sapiens)) were -0.58 °C and 0.86 °C, respectively.

Consider `Nc1ncnc2c1nc(NCc1ccc(-c3ccccc3)cc1)n2[C@@H]1O[C@H](CO)[C@@H](O)[C@H]1O`, for which the results for the shift in melting temperature (ΔTm) (in assay [1]; on Peregrin (Homo sapiens)) were 0.12 °C and 0.29 °C, respectively.

On to `COc1cc(C(=O)NCC2(N(C)C)CCCC2)cc(OC)c1OCc1ccccc1`, for which the ΔTm came to 0.12 °C in assay [1] and 2.2 °C at Peregrin (Homo sapiens).

`O=C(CNC(=O)[C@H](COP(=O)(O)O)NC(=O)CCc1c[nH]c2ccccc12)NCCCCc1ccccc1`: the values for the ΔTm (in assay [1]; at Peregrin (Homo sapiens)) were 0.74 °C and 2.14 °C, respectively.

Consider `Cc1cc(C(=O)CN2CCC(O)CC2)c(C)n1-c1ccc(C#N)cc1`, for which the ΔTm is -0.17 °C in assay [1] and 1.04 °C on Peregrin (Homo sapiens).

With `Nc1ncnc2c1ncn2[C@@H]1O[C@H](C[C@@H](N)CC[C@H](N)C(=O)O)[C@@H](O)[C@H]1O`, the ΔTm in assay [1] is -1.33 °C; at Peregrin (Homo sapiens) it was -1.27 °C.

Regarding `Cc1cc(-c2ccccc2)cc(C(=O)NNS(=O)(=O)c2ccccc2)c1F`, the ΔTm in assay [1] was 0 °C; on Peregrin (Homo sapiens), -1.3 °C.

For the compound `CCC(=O)N[C@H]1CC[C@@H](C(=O)N(C)c2ccc(-c3nc4ccccc4o3)cc2)C1`, the ΔTm in assay [1] was 0.23 °C; at Peregrin (Homo sapiens), 0.27 °C.

Turning to `CC(=O)N[C@@H](Cc1ccc(O)cc1)C(=O)N[C@H](C(=O)N[C@@H](C)C(=O)N[C@@H](CC(=O)O)C(=O)CCl)C(C)C`, the values for the ΔTm (in assay [1]; at Peregrin (Homo sapiens)) were 0.63 °C and -1.75 °C, respectively.

On to `O=C(CCl)Nc1ccc(S(=O)(=O)c2ccc(NC(=O)CCl)cc2)cc1`, for which the ΔTm in assay [1] amounted to 0.88 °C; at Peregrin (Homo sapiens) it was 0.78 °C.

For the compound `COc1cc2c(cc1OC)[C@H]1C[C@@H](OC(=O)[C@@H](N)C(C)C)[C@H](CC(C)C)CN1CC2`, the ΔTm in assay [1] was 0.33 °C; on Peregrin (Homo sapiens) it was -1.11 °C.

Turning to `Cc1nn2c(nc(O)c3cccnc32)c1C#N`, the ΔTm is -0.24 °C in assay [1] and 0.03 °C at Peregrin (Homo sapiens).

Regarding `C=CCO/N=C1\c2ccccc2-c2nc(C#N)c(C#N)nc21`, the ΔTm amounted to 0.66 °C in assay [1] and 2.37 °C on Peregrin (Homo sapiens).

With `CN(CCC(Oc1ccc(-c2ccccc2)cc1)c1ccc(F)cc1)CC(=O)O` (stereo unspecified), the ΔTm is 0.44 °C in assay [1] and 1.93 °C on Peregrin (Homo sapiens).

On to `CC[C@H](C)[C@H](NC(=O)[C@H](CCC(=O)O)NC(=O)[C@@H](NC(C)=O)C(C)C)C(=O)N[C@H](C=O)CC(=O)O` (Ac-VEID-aldehyde), for which the ΔTm in assay [1] was -0.3 °C; on Peregrin (Homo sapiens) it was -1.43 °C.

`Cc1ccc(NC2=CC(=O)c3sc(C)nc3C2=O)cc1`: the figures for the ΔTm (in assay [1]; at Peregrin (Homo sapiens)) were -0.13 °C and -1.72 °C, respectively.

For `COCCOCCn1nc2c(c1C)-c1c(Cl)ccc3c1c(C)c(C(=O)O)n3CCCOc1cc(cc3c(F)c(Cl)ccc13)CCc1cc(nn1C)CSC2`, the ΔTm in assay [1] was -5.22 °C; at Peregrin (Homo sapiens), 0 °C.

Turning to `CCCOc1cccc(Oc2cc3c(cc2NS(=O)(=O)c2cccc(C(=O)NCCOCCOCCOCC(=O)N[C@H](C(=O)N4C[C@H](O)C[C@H]4C(=O)NCc4ccc(-c5scnc5C)cc4)C(C)(C)C)c2)n(C)c(=O)n3C)c1`, the results for the ΔTm (in assay [1]; on Peregrin (Homo sapiens)) were -3.12 °C and 1.17 °C, respectively.

Consider `Cc1cc(/N=N/c2ccc(S(=O)(=O)Nc3ccccn3)cc2)c(N)cc1O`, for which the results for the ΔTm (in assay [1]; at Peregrin (Homo sapiens)) were 0.17 °C and 5.09 °C, respectively.

On to `COc1cc2c(NC3CCN(C)CC3)nc(N3CCCN(C)CC3)nc2cc1OCCCN(C)C`, for which the ΔTm is 0.15 °C in assay [1] and -1.21 °C on Peregrin (Homo sapiens).

For `Nc1nc(C(F)(F)F)nc2c1nnn2C[C@H]1CN(Cc2nccs2)CCO1`, the figures for the ΔTm (in assay [1]; on Peregrin (Homo sapiens)) were 0.48 °C and 1.22 °C, respectively.

In the case of `Cc1nc2ccccn2c1C(=O)CN1CCN(c2ccc(F)cn2)CC1`, the thermal shift (ΔTm) in assay [1] was -0.08 °C; on Peregrin (Homo sapiens), 0.49 °C.

`CC(C)Cc1nn(C)c(=O)c2c(SCCCO)n(Cc3cccc4ccccc34)cc12`: the ΔTm in assay [1] is 0.03 °C and -0.58 °C; at Peregrin (Homo sapiens) it was -2.75 °C and -3.63 °C.

With `Cc1cc(-n2cccc2)c(S(C)(=O)=O)cc1C(=O)N=C(N)N`, the results for the ΔTm (in assay [1]; at Peregrin (Homo sapiens)) were -0.71 °C and 2.16 °C, respectively.

Take `C[C@H](NC(=O)CCc1nc2ccccc2c(=O)[nH]1)c1ccccc1`: the figures for the ΔTm (in assay [1]; at Peregrin (Homo sapiens)) were 0.69 °C and -0.15 °C, respectively.

`C=CCc1cccc(CNc2nc3ccccc3n2CCC)c1O`: the ΔTm was determined as 0.14 °C in assay [1] and 4.18 °C on Peregrin (Homo sapiens).
